The source made the active and inactive calls. No cut-off for these calls is given here.
Key:
MDA-MB-231 [1] = assay: Cytotoxicity against human MDA-MB-231 cells assessed as reduction in cell viability measured after 6 days by MTT assay; assay type: functional, cell-based; settings: time 6.0 day
HCT-116 [2] = assay: Cytotoxicity against human HCT-116 cells assessed as reduction in cell viability measured after 6 days by MTT assay; assay type: functional, cell-based; settings: time 6.0 day
Calu-6 = assay: Cytotoxicity against human Calu-6 cells assessed as reduction in cell viability measured after 6 days by MTT assay; assay type: functional, cell-based; settings: time 6.0 day
DU-145 [3] = assay: Cytotoxicity against human DU-145 cells assessed as reduction in cell viability measured after 6 days by MTT assay; assay type: functional, cell-based; settings: time 6.0 day
NCI-N87 [4] = assay: Cytotoxicity against human NCI-N87 cells assessed as reduction in cell viability measured after 6 days by MTT assay; assay type: functional, cell-based; settings: time 6.0 day
NCI-H23 [5] = assay: Cytotoxicity against human NCI-H23 cells assessed as reduction in cell viability measured after 6 days by MTT assay; assay type: functional, cell-based; settings: time 6.0 day
NCI-H596 = assay: Cytotoxicity against human NCI-H596 cells assessed as reduction in cell viability measured after 6 days by MTT assay; assay type: functional, cell-based; settings: time 6.0 day
NCI-H460 = assay: Cytotoxicity against human NCI-H460 cells assessed as reduction in cell viability measured after 6 days by MTT assay; assay type: functional, cell-based; settings: time 6.0 day
A549 = assay: Cytotoxicity against human A549 cells assessed as reduction in cell viability measured after 6 days by MTT assay; assay type: functional, cell-based; settings: time 6.0 day
[6] = Induction of mitotic arrest in human RPE cells over expressing H2B-GFP-fused MYC assessed as minimum effective concentration for polyploidy measured after 24 to 72 hrs by fluorescence microscopy; assay type: functional; settings: time 24-72 hrs, read-out: MEC
[7] = Induction of mitotic arrest in human RPE cells over expressing H2B-GFP-fused MYC assessed as increase in polyploidy at 40 uM measured after 24 to 72 hrs by fluorescence microscopy; assay type: functional; settings: time 24-72 hrs
NCI-N87 [8] = assay: Cytotoxicity against human NCI-N87 cells assessed as reduction in cell proliferation at 10 uM measured after 3 days by MTT assay; assay type: functional, cell-based; settings: time 3.0 day
DU-145 [9] = assay: Cytotoxicity against human DU-145 cells assessed as reduction in cell proliferation at 10 uM measured after 3 days by MTT assay; assay type: functional, cell-based; settings: time 3.0 day
NCI-H23 [10] = assay: Cytotoxicity against human NCI-H23 cells assessed as reduction in cell proliferation at 10 uM measured after 3 days by MTT assay; assay type: functional, cell-based; settings: time 3.0 day
MDA-MB-231 [11] = assay: Cytotoxicity against human MDA-MB-231 cells assessed as reduction in cell proliferation at 10 uM measured after 3 days by MTT assay; assay type: functional, cell-based; settings: time 3.0 day
HCT-116 [12] = assay: Cytotoxicity against human HCT-116 cells assessed as reduction in cell proliferation at 10 uM measured after 3 days by MTT assay; assay type: functional, cell-based; settings: time 3.0 day
[13] = Induction of mitotic arrest in human RPE cells over expressing H2B-GFP-fused MYC assessed as polyploidy cells in the interphase cell population at 40 uM measured after 72 hrs by fluorescence microscopy relative to control; assay type: functional
[14] = Induction of mitotic arrest in human RPE cells over expressing H2B-GFP-fused MYC assessed as minimum effective concentration for polyploidy measured after 24 hrs by fluorescence microscopy; assay type: functional; settings: read-out: MEC

Cc1csc(-c2nnc(Nc3ccc(Oc4ncccc4-c4ccnc(N)n4)cc3)c3ccccc23)c1
Activity (MDA-MB-231 [1]): Active
Activity (HCT-116 [2]): Active
Activity (Calu-6): Active
Activity (DU-145 [3]): Active
Activity (NCI-N87 [4]): Active
Activity (NCI-H23 [5]): Active
Activity (NCI-H596): Active
Activity (NCI-H460): Active
Activity (A549): Active

COC(=O)C1=C(O)c2ccccc2N(Cc2ccccc2)C(=O)C1
minimal effective concentration [6]: 40 µM
Activity [7]: 50%

COC(=O)C1=C(O)c2ccccc2N(Cc2ccc(C)c(C)c2)C(=O)C1
minimal effective concentration [6]: 20 µM
Activity [7]: 40%

COc1cc(Nc2ncc3c(n2)-c2ccc(Cl)cc2C(c2c(F)cccc2OC)=NC3)ccc1C(=O)O
Activity (MDA-MB-231 [1]): Active
Activity (HCT-116 [2]): Active
Activity (Calu-6): Active
Activity (DU-145 [3]): Active
Activity (NCI-N87 [4]): Active
Activity (NCI-H23 [5]): Active
Activity (NCI-H596): Active
Activity (NCI-H460): Active
Activity (A549): Active

COC(=O)C1=C(O)c2ccccc2N(Cc2ccc(C#N)cc2)C(=O)C1
minimal effective concentration [6]: 40 µM
Activity [7]: 10%

CCc1ccc(CN2C(=O)CC(C(=O)OC)=C(O)c3ccccc32)cc1
Activity (MDA-MB-231 [1]): Active
Activity (NCI-N87 [8]): Active
Activity (DU-145 [9]): Active
Activity (HCT-116 [2]): Active
minimal effective concentration [6]: 0.078 µM
Activity (Calu-6): Active
Activity (NCI-H23 [10]): Active
Activity (DU-145 [3]): Active
Activity (NCI-N87 [4]): Active
Activity (NCI-H23 [5]): Active
Activity (NCI-H596): Active
Activity (MDA-MB-231 [11]): Active
Activity [7]: 10%
Activity (NCI-H460): Active
Activity (A549): Active

COC(=O)C1=C(O)c2ccccc2N(Cc2ccc(OC)cc2)C(=O)C1
Activity (MDA-MB-231 [1]): Active
Activity (HCT-116 [12]): Active
Activity (NCI-N87 [8]): Active
Activity (DU-145 [9]): Active
Activity (HCT-116 [2]): Active
minimal effective concentration [6]: 0.156 µM
Activity (Calu-6): Active
Activity (NCI-H23 [10]): Active
Activity (DU-145 [3]): Active
Activity (NCI-N87 [4]): Active
Activity (NCI-H23 [5]): Active
Activity (NCI-H596): Active
Activity (MDA-MB-231 [11]): Active
Activity [7]: 80%
Activity (NCI-H460): Active
Activity (A549): Active

COC(=O)C1=C(O)c2ccccc2N(Cc2ccc(C)cc2)C(=O)C1
Activity (HCT-116 [12]): Active
Activity (NCI-N87 [8]): Active
Activity (DU-145 [9]): Active
minimal effective concentration [6]: 0.625 µM
Activity (NCI-H23 [10]): Active
Activity (MDA-MB-231 [11]): Active
Activity [7]: 10%

COC(=O)C1=C(O)c2ccccc2N(Cc2ccc(F)cc2)C(=O)C1
minimal effective concentration [6]: 40 µM
Activity [7]: 50%

COc1ccc2c(c1)[C@]1(C[C@H]1c1ccc3c(/C=C/c4ccc(CN5C[C@@H](C)O[C@@H](C)C5)cc4)n[nH]c3c1)C(=O)N2
Activity (MDA-MB-231 [1]): Active
Activity (HCT-116 [2]): Active
Activity (Calu-6): Active
Activity (DU-145 [3]): Active
Activity (NCI-N87 [4]): Active
Activity (NCI-H23 [5]): Active
Activity (NCI-H596): Active
Activity (NCI-H460): Active
Activity (A549): Active

COC(=O)C1=C(O)c2ccccc2N(Cc2ccc(C(C)C)cc2)C(=O)C1
minimal effective concentration [6]: 20 µM
Activity [7]: 70%

COC(=O)C1=C(O)c2ccccc2NC(=O)C1
Activity [13]: 50%
minimal effective concentration [14]: 40 µM

COC(=O)C1=C(O)c2ccccc2N(Cc2ccc(C)cc2C)C(=O)C1
minimal effective concentration [6]: 1.25 µM
Activity [7]: 100%
